Results taken from BigSolDB 2.1.

O=c1[nH]c2ccccc2c(=O)o1
solubility (mole fraction)
Conditions | 288.15 K | 293.15 K | 298.15 K | 303.15 K | 308.15 K | 313.15 K | 318.15 K | 323.15 K | 328.15 K
in 1,4-dioxane | 0.00839 | 0.00944 | 0.0107 | 0.0119 | 0.0133 | 0.0146 | – | 0.0179 | 0.0198
in 2-butanone | 0.00741 | 0.00805 | 0.00877 | 0.00964 | 0.0107 | 0.0117 | 0.0129 | 0.014 | 0.0153
in acetone | 0.00794 | 0.00873 | 0.00965 | 0.0109 | 0.0122 | 0.0135 | 0.0149 | 0.0165 | 0.0184
in acetonitrile | 0.003 | 0.0033 | 0.00374 | 0.0043 | 0.00485 | 0.00553 | 0.00624 | 0.00712 | 0.00797
in ethanol | 0.00134 | 0.0015 | 0.00175 | 0.00201 | 0.00239 | 0.00277 | 0.00328 | 0.00381 | 0.00439
in ethyl acetate | 0.0032 | 0.00352 | 0.00389 | 0.00434 | 0.00482 | 0.00533 | 0.00582 | 0.00636 | 0.00694
in isopropanol | 0.00104 | 0.00121 | 0.00144 | 0.00176 | 0.00216 | 0.00265 | 0.00316 | 0.0038 | 0.00457
in isopropyl acetate | 0.00185 | 0.00206 | 0.00234 | 0.00256 | 0.00291 | 0.00325 | 0.0036 | 0.00396 | 0.00434
in methanol | 0.00149 | 0.00173 | 0.00204 | 0.00243 | 0.00295 | 0.00354 | 0.00425 | 0.00507 | 0.00606
in methyl acetate | 0.00415 | 0.00464 | 0.00517 | 0.00573 | 0.00634 | 0.00699 | 0.00768 | 0.00844 | 0.00937
in n-propanol | 0.00116 | 0.00133 | 0.00152 | 0.00181 | 0.00208 | 0.0025 | 0.00291 | 0.00341 | 0.00394
in n-propyl acetate | 0.00229 | 0.00255 | 0.00285 | 0.00318 | 0.00351 | 0.00394 | 0.00434 | 0.00477 | 0.00534
